Assay results: patent US20260285853A1, “COMPOUNDS AND METHODS FOR MODULATING SPLICING” (REMIX THERAPEUTICS INC., priority 2023, published 2026)
Where two headings read alike, the source gives them in different places.

Assays:
Type in all cases: cell-based
HTT mRNA [1] = assay: Splicing RT-qPCR assay (THP), Table 2A
MYB mRNA [2] = assay: Splicing RT-qPCR assay (THP), Table 2A
HTT mRNA [3] = assay: Gene panel canonical junction qPCR assay, decrease in CJ mRNA, Table 3
Summary of the method: (§1)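 IC50 denotes the concentration giving 50% decrease in canonical-junction mRNA, fitted by 4-parameter logistic to percentage response derived from ΔΔCt versus housekeeping gene and DMSO control. Cells (A673 or K562) exposed 24 h to 11-point 3-fold serial dilutions from 10 uM top, DMSO ≤0.25%; junction-spanning primer/probe qPCR.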

MYB mRNA [4] = assay: as above
Summary of the method: as §1

SMN2 mRNA = assay: as above; conditions: decrease in canonical junction (CJ) mRNA, gene panel qPCR, Table 3
Summary of the method: as §1

[5] = tested on: SH-SY5Y (human neuroblastoma) cells; assay: Cell viability, Cell Titer Glo 2.0 assay; conditions: read-out: Viability SHSY5Y.3 GI50
Summary of the method: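 Viability was read by CellTiter-Glo 2.0 luminescence after a 72-hour compound exposure at 37° C. under 5% CO2. Cells were in IMDM plus 10% FBS containing 0.1% DMSO, and medium-only wells gave the blank.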

[6] = Table 2A (THP), AJ mRNA increase, read-out: HTT AJ (increase in alternative junction mRNA, AC50)
[7] = Table 2A (THP), CJ mRNA decrease, read-out: HTT CJ (decrease in canonical junction mRNA, IC50)
[8] = Table 2A (THP), AJ mRNA increase, read-out: MYB AJ (increase in alternative junction mRNA, AC50)
[9] = Table 2A (THP), CJ mRNA decrease, read-out: MYB CJ (decrease in canonical junction mRNA, IC50)
[10] = decrease in canonical junction (CJ) mRNA, gene panel qPCR, Table 3
[11] = Table 2A, THP, HTT alternative junction (AJ) mRNA, read-out: HTT AJ (AC50, increase in alternative junction mRNA)
[12] = Table 2A, THP, HTT canonical junction (CJ) mRNA, read-out: HTT CJ (IC50, decrease in canonical junction mRNA)
[13] = Table 2A, THP, MYB alternative junction (AJ) mRNA, read-out: MYB AJ (AC50, increase in alternative junction mRNA)
[14] = Table 2A, THP, MYB canonical junction (CJ) mRNA, read-out: MYB CJ (IC50, decrease in canonical junction mRNA)
[15] = decrease in CJ mRNA levels, canonical junction qPCR, gene panel

SMILES	AC50 (HTT mRNA [1]; [6])	IC50 (HTT mRNA [1]; [7])	AC50 (MYB mRNA [2]; [8])	IC50 (MYB mRNA [2]; [9])	IC50 (HTT mRNA [3]; [10])	IC50 (MYB mRNA [4]; [10])	IC50 (SMN2 mRNA)	GI50 [5]	AC50 (HTT mRNA [1]; [11])	IC50 (HTT mRNA [1]; [12])	AC50 (MYB mRNA [2]; [13])	IC50 (MYB mRNA [2]; [14])	IC50 (HTT mRNA [3]; [15])	IC50 (MYB mRNA [4]; [15])
Cc1cn2cc(NC(=O)c3ccc(N4CC(CNC5CC5)C4)c4cn(C)nc34)cc(F)c2n1 [Compound 298, 4-[3-[(cyclopropylamino)-methyl]azetidin-1-yl]-N-(8-fluoro-2-methylimidazo[1,2-a]pyridin-6-yl)-2-methylindazole-7-carboxamide]	1 to 10 µM	1 to 10 µM	0.1 to 1 µM	0.1 to 1 µM	1 to 10 µM	0.1 to 1 µM	< 0.1 µM	1 to 10 µM	–	–	–	–	–	–
CCNC1CCN(c2cc(F)c(C(=O)Nc3cc(F)c4nc(C)n(C)c4c3)c3nn(C)cc23)CC1 [Compound 299, 4-[4-(ethylamino)-1-piperidyl]-6-fluoro-N-(7-fluoro-2,3-dimethyl-benzimidazol-5-yl)-2-methyl-indazole-7-carboxamide]	> 10 µM	> 10 µM	> 10 µM	> 10 µM	> 10 µM	> 10 µM	> 10 µM	> 10 µM	–	–	–	–	–	–
CCNC1CCN(c2cc(F)c(C(=O)Nc3cc(F)c4cn(C)nc4c3)c3nn(C)cc23)CC1 [Compound 300, 4-[4-(ethylamino)-1-piperidyl]-6-fluoro-N-(4-fluoro-2-methylindazol-6-yl)-2-methyl-indazole-7-carboxamide]	> 10 µM	> 10 µM	> 10 µM	> 10 µM	> 10 µM	> 10 µM	1 to 10 µM	1 to 10 µM	–	–	–	–	–	–
CCNC1CCN(c2cc(F)c(C(=O)Nc3nc4c(C)nc(C)cn4n3)c3nn(C)cc23)CC1 [Compound 301, N-(6,8-dimethyl-[1,2,4]triazolo[1,5-a]pyrazin-2-yl)-4-(4-(ethylamino)piperidin-1-yl)-6-fluoro-2-methyl-2H-indazole-7-carboxamide 2,2,2-trifluoroacetate]	> 10 µM	1 to 10 µM	> 10 µM	> 10 µM	1 to 10 µM	> 10 µM	1 to 10 µM	> 10 µM	–	–	–	–	–	–
Cc1cn2cc(NC(=O)c3ccc(N4CCCC(N)C4)c4cn(C)nc34)nc2c(CNS(C)(=O)=O)n1 (stereo not shown) [Compound 866]	–	–	–	–	–	–	–	> 10 µM	> 10 µM	> 10 µM	> 10 µM	> 10 µM	> 10 µM	> 10 µM
Cn1cc2cc(NC(=O)c3ccc(N4CCC(NC5CC5)CC4)c4cn(C)nc34)c(O)c(CNS(C)(=O)=O)c2n1 [Compound 867]	–	–	–	–	–	–	–	> 10 µM	> 10 µM	> 10 µM	> 10 µM	> 10 µM	> 10 µM	> 10 µM
CC(c1cc(NC(=O)c2ccc(N3CCC(NC4CC4)CC3)c3cn(C)nc23)cc2cn(C)nc12)S(=O)(=O)N(C)C (stereo not shown) [Compound 868]	–	–	–	–	–	–	–	1 to 10 µM	> 10 µM	> 10 µM	> 10 µM	> 10 µM	> 10 µM	> 10 µM
Cc1c2cc(NC(=O)c3ccc(N4CCC(NC5CC5)CC4)c4cn(C)nc34)cc(CNS(C)(=O)=O)c2nn1C [Compound 869]	–	–	–	–	–	–	–	> 10 µM	> 10 µM	> 10 µM	> 10 µM	> 10 µM	> 10 µM	> 10 µM
Cc1cn2nc(NC(=O)c3ccc(N4CCC(NC5CC5)CC4)c4cn(C)nc34)cc(CN)c2n1 [Compound 870]	–	–	–	–	–	–	–	0.1 to 1 µM	> 10 µM	> 10 µM	> 10 µM	> 10 µM	> 10 µM	> 10 µM
Cn1cc2cc(NC(=O)c3ccc(N4CCC(NC5CC5)CC4)c4cn(C)nc34)cc(CNC(=N)N)c2n1 [Compound 871]	–	–	–	–	–	–	–	> 10 µM	> 10 µM	> 10 µM	1 to 10 µM	1 to 10 µM	> 10 µM	1 to 10 µM
CCNC1CCN(c2ccc(C(=O)Nc3cn4cc(C)nc(CC(=O)NC)c4n3)c3nn(C)cc23)CC1 [Compound 872, 4-[4-(ethylamino)-1-piperidyl]-2-methyl-N-[6-methyl-8-[2-(methylamino)-2-oxo-ethyl]imidazo[1,2-a]pyrazin-2-yl]indazole-7-carboxamide]	–	–	–	–	–	–	–	> 10 µM	> 10 µM	> 10 µM	> 10 µM	> 10 µM	> 10 µM	> 10 µM
CCNC1CCN(c2ccc(C(=O)Nc3cc(CC(N)=O)c4nn(C)cc4c3)c3nn(C)cc23)CC1 [Compound 873, N-[7-(2-amino-2-oxo-ethyl)-2-methyl-indazol-5-yl]-4-[4-(ethylamino)-1-piperidyl]-2-methyl-indazole-7-carboxamide]	–	–	–	–	–	–	–	> 10 µM	> 10 µM	> 10 µM	> 10 µM	> 10 µM	> 10 µM	> 10 µM
CCNC1CCN(c2ccc(C(=O)Nc3cc(CS(=O)(=O)N(C)C)c4nn(C)cc4c3)c3nn(C)cc23)CC1 [Compound 874]	–	–	–	–	–	–	–	> 10 µM	> 10 µM	> 10 µM	> 10 µM	> 10 µM	> 10 µM	> 10 µM
CCNC1CCN(c2ccc(C(=O)Nc3cc(CCC(N)=O)c4nn(C)cc4c3)c3nn(C)cc23)CC1 [Compound 875]	–	–	–	–	–	–	–	> 10 µM	> 10 µM	> 10 µM	> 10 µM	> 10 µM	> 10 µM	> 10 µM
CCNC1CCN(c2ccc(C(=O)Nc3cc(CCC(=O)NC)c4nn(C)cc4c3)c3nn(C)cc23)CC1 [Compound 876]	–	–	–	–	–	–	–	1 to 10 µM	1 to 10 µM	1 to 10 µM	1 to 10 µM	1 to 10 µM	1 to 10 µM	1 to 10 µM
CCNC1CCN(c2ccc(C(=O)Nc3cc(CCC(=O)N(C)C)c4nn(C)cc4c3)c3nn(C)cc23)CC1 [Compound 877]	–	–	–	–	–	–	–	> 10 µM	> 10 µM	> 10 µM	> 10 µM	> 10 µM	> 10 µM	> 10 µM
CCNC1CCN(c2ccc(C(=O)Nc3cc(CCc4nnc[nH]4)c4nn(C)cc4c3)c3nn(C)cc23)CC1 [Compound 878]	–	–	–	–	–	–	–	> 10 µM	> 10 µM	> 10 µM	> 10 µM	> 10 µM	> 10 µM	> 10 µM
Cn1cc2cc(NC(=O)c3ccc(N4CCC(NC5CC5)CC4)c4cn(C)nc34)cc(CCO)c2n1 [Compound 879]	–	–	–	–	–	–	–	1 to 10 µM	> 10 µM	> 10 µM	1 to 10 µM	1 to 10 µM	> 10 µM	1 to 10 µM
Cn1cc2cc(NC(=O)c3ccc(N4CCC(NC5CC5)CC4)c4cn(C)nc34)cc(CNc3ncco3)c2n1 [Compound 880]	–	–	–	–	–	–	–	1 to 10 µM	> 10 µM	> 10 µM	1 to 10 µM	1 to 10 µM	> 10 µM	1 to 10 µM
Cn1cc2cc(NC(=O)c3ccc(N4CCC(NC5CC5)CC4)c4cn(C)nc34)cc(CNc3nccs3)c2n1 [Compound 881]	–	–	–	–	–	–	–	1 to 10 µM	> 10 µM	1 to 10 µM	0.1 to 1 µM	1 to 10 µM	1 to 10 µM	1 to 10 µM
Cn1cc2cc(NC(=O)c3ccc(N4CCC(NC5CC5)CC4)c4cn(C)nc34)cc(CNc3cncs3)c2n1 [Compound 882]	–	–	–	–	–	–	–	1 to 10 µM	> 10 µM	> 10 µM	0.1 to 1 µM	0.1 to 1 µM	> 10 µM	0.1 to 1 µM
Cn1cc2cc(NC(=O)c3ccc(N4CCC(NC5CC5)CC4)c4cn(C)nc34)cc(CNc3cn[nH]c3)c2n1 [Compound 883]	–	–	–	–	–	–	–	> 10 µM	> 10 µM	> 10 µM	1 to 10 µM	1 to 10 µM	> 10 µM	1 to 10 µM
CCNC1CCN(c2ccc(C(=O)Nc3cn4cc(C)nc(CNS(C)(=O)=O)c4n3)c3nn(C)cc23)CC1 [Compound 884]	–	–	–	–	–	–	–	> 10 µM	> 10 µM	> 10 µM	1 to 10 µM	1 to 10 µM	> 10 µM	1 to 10 µM
Cc1cn2cc(NC(=O)c3ccc(N4CC5CCC(C4)N5)c4cn(C)nc34)nc2c(CNS(C)(=O)=O)n1 [Compound 885, 4-(3,8-diazabicyclo[3.2.1]octan-3-yl)-N-[8-(methanesulfonamidomethyl)-6-methyl-imidazo[1,2-a]pyrazin-2-yl]-2-methyl-indazole-7-carboxamide]	–	–	–	–	–	–	–	1 to 10 µM	1 to 10 µM	1 to 10 µM	1 to 10 µM	1 to 10 µM	1 to 10 µM	1 to 10 µM
